Active and inactive are the calls of the source. The rule behind the calls is not given here.

For assay [1], the system named is CD4+ve Th. Put plainly: Immunosuppressive activity in C57BL/6J mouse CD4+ve T cells assessed as inhibition of CD3/CD28-stimulated CD4+ve T cell proliferation by measuring fold reduction incubated for 72 hrs by CellTrace-violet staining based flow cytometry analysis relative to FK506. It counts as functional.
Assay [2] deals with Primary hippocampal neuron. Put plainly: Neurotrophic activity in ICR mouse primary hippocampal neuron assessed as induction of neurite outgrowth at 1 ng/ml measured after 48 hrs by photographic imaging analysis. It counts as functional, tissue-based.
Assay [3] in a line: Neurotrophic activity in ICR mouse primary hippocampal neuron assessed as increase in relative spontaneous excitatory postsynaptic current frequency at -70 mV holding potential at 1 ng/ml incubated for 10 to 14 days in presence of bicuculline methiodide. It counts as functional. As to conditions: time 10-14 day.
Assay [4] concerns CD4+ve Th. Put plainly: Immunosuppressive activity in C57BL/6J mouse CD4+ve T cells assessed as inhibition of CD3/CD28-stimulated CD4+ve T cell proliferation incubated for 72 hrs by CellTrace-violet staining based flow cytometry analysis. It counts as functional. (In general: A flow cytometer gives signals particle by particle.)

As for `CCC[C@@H]1/C=C(\C)C[C@H](C)C[C@H](OC)[C@H]2O[C@@](O)(CC(=O)N3CCC[C@H]3C(=O)O[C@H](/C(C)=C/[C@@H]3CC[C@@H](O)[C@H](O)C3)[C@H](C)[C@@H](O)CC1=O)[C@H](C)C[C@@H]2OC`, the “fold change (FC)” value in the assay with CD4+ve Th [1] turned out to be 220000. In addition, in assay [2], the result was Active. Further, the Activity in assay [3] is listed as 2.63. Besides, in the assay on CD4+ve Th [4], the IC50 amounted to 7.27 µM.
Consider `C=CC[C@@H]1/C=C(\C)C[C@H](C)C[C@H](OC)[C@H]2O[C@@](O)(C(=O)C(=O)N3CCCC[C@H]3C(=O)O[C@H](/C(C)=C/[C@@H]3CC[C@@H](O)[C@H](OC)C3)[C@H](C)[C@@H](O)CC1=O)[C@H](C)C[C@@H]2OC` [TACROLIMUS ANHYDROUS], for which the Activity in assay [3] is recorded as 2.61. The IC50 with CD4+ve Th [4] was found to be 3.4e-05 µM.
As to `CCC[C@@H]1/C=C(\C)C[C@H](C)C[C@H](OC)[C@H]2O[C@@](O)(C(=O)C(=O)N3CCC[C@H]3C(=O)O[C@H](/C(C)=C/[C@@H]3CC[C@@H](O)[C@H](OC)C3)[C@H](C)[C@@H](O)CC1=O)[C@H](C)C[C@@H]2OC`, in the assay with CD4+ve Th [1], the “fold change (FC)” value was 120000. For the same compound, the result in assay [2] was Active. In addition, in assay [3], the Activity was found to be 3.29. Further, in the assay on CD4+ve Th [4], the IC50 is 3.97 µM.

For orientation: IC50 means the concentration that gives 50% inhibition.
